Molecules are shown by their SMILES. Where two headings read alike, the source gives them in different places.

This note sets out measurements from patent EP2058306A1, “Heteroaryl-substituted 2-pyridinyl-methylamine derivatives” (SCHWARZ PHARMA AG, priority 2007, dated 2009).

One assay concerns the target T1, dopamine D1 receptor (Sus scrofa, UniProt P50130).
T1 construct: native membrane preparations from porcine striatum; from tissue; host or cells: porcine striatum
Description: radioligand binding assay, dopamine D1 receptor, [3H]SCH 23390. The text has this:
(§1) Biological activity of the compounds has been determined in radioligand binding assays. These experiments have been done according to methods which are described in literature (Hübner, H. et al., J. Med. Chem. (2000), 43, 7562). For the determination of binding affinity to the receptors of the dopamine D2 family membranes were established carrying the human D2long, D2short, D3 or D4.4 receptor subtype stably expressed in Chinese hamster ovary cell lines. In principle, the binding experiments started when incubating an appropriate amount of membrane with the radioligand [^3H]spiperone and the particular test compounds used in a wide range of different concentrations from subnanomolar up to micromolar ones. In the same way, binding affinities of the test compounds to the dopamine D1 receptor were determined when using native membrane preparations from porcine striatum and the D1 selective radioligand [^3H]SCH 23390.
(§2) The results of the binding experiments are summarized in Table 1 as mean values of two to five individual experiments each done in triplicate and expressed as Ki values in nM.

The next assay deals with human D2long, D2short (Homo sapiens, UniProt P14416). The assay is described as follows: biochemical. The assay is classed as binding. The procedure:
as §1, with “These” for “Biological activity of the compounds has been determined in radioligand binding assays. These”, “ones.” for “ones. In the same way, binding affinities of the test compounds to the dopamine D1 receptor were determined when using native membrane preparations from porcine striatum and the D1 selective radioligand [^3H]SCH 23390.”

The target in the next assay is human D3 (Homo sapiens, UniProt P35462). The assay is described as follows: radioligand binding assay, dopamine D3 receptor, [3H]spiperone. The procedure: as §1, with “These” for “Biological activity of the compounds has been determined in radioligand binding assays. These”, “ones.” for “ones. In the same way, binding affinities of the test compounds to the dopamine D1 receptor were determined when using native membrane preparations from porcine striatum and the D1 selective radioligand [^3H]SCH 23390.”
human D3, sequence (P35462 whole entry): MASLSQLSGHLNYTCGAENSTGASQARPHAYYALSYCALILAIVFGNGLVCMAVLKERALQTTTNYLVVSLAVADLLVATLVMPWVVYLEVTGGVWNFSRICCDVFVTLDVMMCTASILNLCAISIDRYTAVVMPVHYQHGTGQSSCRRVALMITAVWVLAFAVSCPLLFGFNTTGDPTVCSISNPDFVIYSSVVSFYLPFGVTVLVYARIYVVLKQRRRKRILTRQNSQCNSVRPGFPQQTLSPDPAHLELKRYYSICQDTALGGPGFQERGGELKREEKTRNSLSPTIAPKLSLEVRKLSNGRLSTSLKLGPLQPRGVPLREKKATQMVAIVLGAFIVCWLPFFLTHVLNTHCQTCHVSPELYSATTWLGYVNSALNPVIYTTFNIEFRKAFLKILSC

The next assay deals with T2, human D4.4 (Homo sapiens, UniProt P21917).
T2 sequence (P21917 1-419): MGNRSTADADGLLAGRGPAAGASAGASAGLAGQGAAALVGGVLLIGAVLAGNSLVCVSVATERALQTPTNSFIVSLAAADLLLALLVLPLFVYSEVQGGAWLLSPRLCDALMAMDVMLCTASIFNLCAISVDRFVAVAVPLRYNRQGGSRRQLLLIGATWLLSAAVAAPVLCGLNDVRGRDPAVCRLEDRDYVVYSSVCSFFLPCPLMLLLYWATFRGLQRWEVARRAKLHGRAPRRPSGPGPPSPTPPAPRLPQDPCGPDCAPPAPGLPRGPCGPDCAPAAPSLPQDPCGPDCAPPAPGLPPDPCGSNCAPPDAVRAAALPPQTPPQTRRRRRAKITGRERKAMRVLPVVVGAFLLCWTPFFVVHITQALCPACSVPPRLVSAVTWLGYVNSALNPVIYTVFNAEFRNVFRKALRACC
Description: radioligand binding assay, dopamine D4.4 receptor, [3H]spiperone.
Source text: as §1, §2

A further assay has as its target T3, 5-HT1A (Sus scrofa, UniProt A0A4X1UTF5).
T3 construct: membrane preparations from porcine cortex; from tissue; host or cells: porcine cortex
T3 sequence (A0A4X1UTF5 1-422): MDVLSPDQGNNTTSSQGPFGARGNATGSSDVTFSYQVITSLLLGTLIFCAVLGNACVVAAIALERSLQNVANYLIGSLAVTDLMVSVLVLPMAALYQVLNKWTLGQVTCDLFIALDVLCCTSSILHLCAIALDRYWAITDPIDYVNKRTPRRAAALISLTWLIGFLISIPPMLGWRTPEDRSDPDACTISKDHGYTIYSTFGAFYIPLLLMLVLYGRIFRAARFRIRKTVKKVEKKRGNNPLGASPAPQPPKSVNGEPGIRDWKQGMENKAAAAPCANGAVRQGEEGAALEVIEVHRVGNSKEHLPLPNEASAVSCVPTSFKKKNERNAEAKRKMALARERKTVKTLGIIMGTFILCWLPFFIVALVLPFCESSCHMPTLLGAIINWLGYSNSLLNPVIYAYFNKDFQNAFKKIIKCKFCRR
Description: radioligand binding assay, serotonin 5-HT1A receptor, [3H]WAY 100635. How it is done:
(§3) The investigation of receptor binding to the serotonin and adrenergic receptors was done according to a published procedure (Heindl, C. et al., Tetrahedron: Asymmetry (2003), 14, 3141-3152). In detail, for the determination of the binding properties to serotonin receptors membrane preparations from porcine cortex was incubated with the 5-HT1A selective radioligand [^3H]WAY 100635 or with the 5-HT2 selective compound [^3H]ketanserin. The measurement of alpha-1 and alpha-2 receptor binding was achieved when utilizing porcine cortical membranes and the selective radioligands [^3H]prazosin (for alpha-1) and [^3H]RX821002 in an assay similar to that described above.
as §2

For the next assay, the target named is T4, 5-HT2 (Sus scrofa, UniProt P50129).
T4 construct: membrane preparations from porcine cortex; from tissue; host or cells: porcine cortex
T4 sequence (P50129 whole entry): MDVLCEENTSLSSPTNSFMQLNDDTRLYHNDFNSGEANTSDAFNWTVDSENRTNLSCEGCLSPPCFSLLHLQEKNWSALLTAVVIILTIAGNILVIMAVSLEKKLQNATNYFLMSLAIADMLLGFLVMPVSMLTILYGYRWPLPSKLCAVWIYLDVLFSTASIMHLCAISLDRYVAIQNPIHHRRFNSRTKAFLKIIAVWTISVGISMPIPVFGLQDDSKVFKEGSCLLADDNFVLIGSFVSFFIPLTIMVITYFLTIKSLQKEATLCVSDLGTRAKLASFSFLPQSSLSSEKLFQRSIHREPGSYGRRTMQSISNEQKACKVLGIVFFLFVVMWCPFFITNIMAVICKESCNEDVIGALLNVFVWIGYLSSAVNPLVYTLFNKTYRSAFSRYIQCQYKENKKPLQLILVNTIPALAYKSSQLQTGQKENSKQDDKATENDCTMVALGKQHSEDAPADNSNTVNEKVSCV
The assay is described as follows: radioligand binding assay, serotonin 5-HT2 receptor, [3H]ketanserin. Set-up: species or system porcine.

In a further assay the target is alpha-1. The assay is described as follows: radioligand binding assay, adrenergic alpha-1 receptor, [3H]prazosin. The conditions noted are these: porcine cortical membranes, mean of two to five experiments in triplicate, read-out: Ki alpha1. How it is done: as §3, §2
Where [1] appears, read: porcine striatum membranes, mean of two to five experiments in triplicate, read-out: Ki D1.
Where [2] appears, read: CHO cell membranes, [3H]spiperone; mean of two to five experiments in triplicate; read-out: Ki D2.
[3] abbreviates: CHO cell membranes, mean of two to five experiments in triplicate, read-out: Ki D3.
Where [4] appears, read: CHO cell membranes, mean of two to five experiments in triplicate, read-out: Ki D4.4.
Setting [5] is: porcine cortex membranes, mean of two to five experiments in triplicate, read-out: Ki 5-HT1a.
Setting [6] is: porcine cortex membranes, [3H]ketanserin, mean of two to five experiments in triplicate, read-out: Ki 5-HT2.

human D2long, D2short, sequence (P14416 whole entry): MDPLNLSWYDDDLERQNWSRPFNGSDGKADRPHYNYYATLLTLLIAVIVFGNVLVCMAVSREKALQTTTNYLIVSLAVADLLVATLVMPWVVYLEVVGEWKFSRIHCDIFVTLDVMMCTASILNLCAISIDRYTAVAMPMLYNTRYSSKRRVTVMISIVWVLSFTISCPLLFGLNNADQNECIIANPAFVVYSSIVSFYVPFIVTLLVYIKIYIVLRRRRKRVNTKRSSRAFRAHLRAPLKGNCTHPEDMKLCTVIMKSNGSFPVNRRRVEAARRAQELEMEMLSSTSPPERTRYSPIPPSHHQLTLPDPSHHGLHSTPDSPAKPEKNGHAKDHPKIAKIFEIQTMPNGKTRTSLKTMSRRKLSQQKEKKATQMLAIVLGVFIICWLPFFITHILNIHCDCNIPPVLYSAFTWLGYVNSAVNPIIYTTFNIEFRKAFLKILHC
T1 sequence (P50130 whole entry): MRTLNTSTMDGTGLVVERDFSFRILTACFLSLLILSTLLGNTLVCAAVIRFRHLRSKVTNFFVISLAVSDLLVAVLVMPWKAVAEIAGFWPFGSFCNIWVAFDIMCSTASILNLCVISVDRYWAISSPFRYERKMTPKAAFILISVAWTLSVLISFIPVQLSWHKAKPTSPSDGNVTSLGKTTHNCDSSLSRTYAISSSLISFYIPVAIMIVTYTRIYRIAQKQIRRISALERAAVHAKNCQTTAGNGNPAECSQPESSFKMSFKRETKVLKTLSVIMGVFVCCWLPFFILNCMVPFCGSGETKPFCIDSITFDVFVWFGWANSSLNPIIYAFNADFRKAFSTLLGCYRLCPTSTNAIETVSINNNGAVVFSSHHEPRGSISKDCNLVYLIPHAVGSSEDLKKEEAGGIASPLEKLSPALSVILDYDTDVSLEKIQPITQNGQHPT

With `Cc1ccc(CNCC2(F)CCN(C(=O)c3cc4ccccc4s3)CC2)nc1` [Example E23, Benzo[b]thien-2-yl-[4-fluoro-4-[[(5-methyl-pyridin-2-ylmethyl)amino]methyl]-piperidin-1-yl]-methanone], the inhibition constant Ki on dopamine D1 receptor (setting [1]) was > 5 µM; at human D2long, D2short (setting [2]) it was > 5 µM; on human D3 (setting [3]) it was > 5 µM; on human D4.4 (setting [4]), 0.501 to 5 µM; at 5-HT1A (setting [5]), 0.05 to 0.5 µM; on 5-HT2 (setting [6]), > 5 µM. For the same compound, the Ki on alpha-1 was in the range of 0.501 to 5 µM.

Regarding `Cc1ccc(CNCC2(F)CCN(C(=O)c3coc(Br)c3)CC2)nc1` [Example E34, 5-Bromofuran-3-yl-[4.fluoro-4-[[(5-methylpyridin-2-ylmethyl)amino]methyl]piperidin-1-yl]-methanone], the inhibitory constant (Ki) is > 5 µM on dopamine D1 receptor (setting [1]); > 5 µM at human D2long, D2short (setting [2]); > 5 µM on human D3 (setting [3]); 0.501 to 5 µM on human D4.4 (setting [4]); < 0.05 µM at 5-HT1A (setting [5]); > 5 µM at 5-HT2. Also, at alpha-1, the inhibition constant Ki fell in the range of 0.501 to 5 µM.

On to `Cc1ccc(CNCC2(F)CCN(C(=O)c3cc4cc(Br)ccc4s3)CC2)nc1` [Example E24, 5-Bromobenzo[b]thien-2-yl-[4-fluoro-4-[[(5-methylpyridin-2-ylmothyl)amino]methyl]piporidin-1-yl]-methanone], for which the Ki was > 5 µM at dopamine D1 receptor (setting [1]); > 5 µM on human D2long, D2short (setting [2]); 0.501 to 5 µM on human D3 (setting [3]); 0.501 to 5 µM on human D4.4 (setting [4]); 0.05 to 0.5 µM on 5-HT1A (setting [5]); > 5 µM on 5-HT2. For the same compound, the inhibition constant (Ki) on alpha-1 fell in the range of 0.05 to 0.5 µM.

For the compound `Cc1ccc(CNCC2(F)CCN(C(=O)c3csc4ccccc34)CC2)nc1` [Example E25, Benzo[b]thien-3-yl-[4-fluoro-4-[[(5-methylpyridin-2-ylmethyl)amino]methyl]piperidin-1-yl]-methanone], the Ki was > 5 µM on dopamine D1 receptor (setting [1]); > 5 µM at human D2long, D2short (setting [2]); > 5 µM at human D3 (setting [3]); 0.05 to 0.5 µM at human D4.4 (setting [4]); < 0.05 µM on 5-HT1A (setting [5]); > 5 µM on 5-HT2 (setting [6]). For the same compound, the Ki on alpha-1 fell in the range of 0.501 to 5 µM.

`Cc1ccc(CNCC2(F)CCN(C(=O)c3ccc[nH]3)CC2)nc1` [Example E37, [4-Fluoro-4-[[(5-methylpyridin-2-ylmethyl)amino]methyl]piperidin-1-yl]-pyrrol-2-yl-methanone]: the Ki was 0.501 to 5 µM on 5-HT1A (setting [5]) and > 5 µM at 5-HT2 (setting [6]).

On to `Cc1ccc(CNCC2(F)CCN(C(=O)c3ccc(F)s3)CC2)nc1` [Example E2], for which the Ki was < 0.05 µM on 5-HT1A (setting [5]) and > 5 µM at 5-HT2.

Regarding `Cc1ccc(CNCC2(F)CCN(C(=O)c3ccco3)CC2)nc1` [Example E31, [4-Fluoro-4-[[(5-methylpyridin-2-ylmethyl)amino]methyl]piperidin-1-yl]-furan-2-yl-methanone], the inhibitory constant (Ki) on dopamine D1 receptor (setting [1]) was > 5 µM; on human D2long, D2short (setting [2]), > 5 µM; on human D3 (setting [3]), > 5 µM; on human D4.4 (setting [4]), > 5 µM; on 5-HT1A (setting [5]), 0.05 to 0.5 µM; on 5-HT2 (setting [6]), > 5 µM. Besides, on alpha-1, the Ki is > 5 µM.

`Cc1ccc(CNCC2(F)CCN(C(=O)c3cc4ccsc4s3)CC2)nc1` [Example E27, [4-Fluoro-4-[[(5-methylpyridin-2-ylmethyl)amino]methyl]piperidin-1-yl]-thieno[2,3-b]thien-2-yl-methanone]: the inhibitory constant (Ki) at dopamine D1 receptor (setting [1]) was > 5 µM; at human D2long, D2short (setting [2]) it was > 5 µM; at human D3 (setting [3]), > 5 µM; on human D4.4 (setting [4]), 0.05 to 0.5 µM; at 5-HT1A (setting [5]) it was < 0.05 µM; on 5-HT2 (setting [6]), > 5 µM. Also, the Ki at alpha-1 lay in the range of 0.501 to 5 µM.

As for `CSc1ccc(C(=O)N2CCC(F)(CNCc3ccc(C)cn3)CC2)s1` [Example E12, [4-Fluoro-4-[[(5-methylpyridin-2-ylmethyl)amino]methyl]piperidin-1-yl]-5-mothylthiothien-2-yl-methanone], the inhibition constant Ki was > 5 µM on dopamine D1 receptor (setting [1]); > 5 µM at human D2long, D2short (setting [2]); > 5 µM on human D3 (setting [3]); 0.501 to 5 µM on human D4.4 (setting [4]); < 0.05 µM on 5-HT1A (setting [5]); > 5 µM on 5-HT2. For the same compound, the Ki at alpha-1 was in the range of 0.501 to 5 µM.

For `Cc1ccc(CNCC2(F)CCN(C(=O)c3scc4c3CCCC4)CC2)nc1` [Example E29, [4-Fluoro-4-[[(5-methylpyridin-2-ylmethyl)amino]methyl]pipendin-1-yl]-4,5,6,7-tetrahydrobenzo[c]thien-1-yl-methanone], the Ki was > 5 µM at dopamine D1 receptor (setting [1]); > 5 µM on human D2long, D2short (setting [2]); > 5 µM at human D3 (setting [3]); 0.501 to 5 µM at human D4.4 (setting [4]); < 0.05 µM at 5-HT1A (setting [5]); > 5 µM on 5-HT2 (setting [6]). For the same compound, at alpha-1, the Ki lay within 0.501 to 5 µM.

For `Cc1ccc(CNCC2(F)CCN(C(=O)c3cc4ccccn4n3)CC2)nc1` [Example E42], the Ki at dopamine D1 receptor (setting [1]) is > 5 µM; at human D2long, D2short (setting [2]), > 5 µM; at human D3 (setting [3]), > 5 µM; on human D4.4 (setting [4]), > 5 µM; at 5-HT1A (setting [5]), 0.05 to 0.5 µM; at 5-HT2, > 5 µM. For the same compound, the Ki on alpha-1 is > 5 µM.

On to `Cc1ccc(CNCC2(F)CCN(C(=O)c3coc4ccccc34)CC2)nc1` [Example E36], for which the Ki on dopamine D1 receptor (read-out: Ki D1, porcine striatum membranes, mean of two to five experiments in triplicate) is > 5 µM; on human D2long, D2short (read-out: Ki D2; CHO cell membranes, [3H]spiperone; mean of two to five experiments in triplicate) it was > 5 µM; at human D3 (read-out: Ki D3, CHO cell membranes, mean of two to five experiments in triplicate), > 5 µM; on human D4.4 (read-out: Ki D4.4, CHO cell membranes, mean of two to five experiments in triplicate), 0.501 to 5 µM; on 5-HT1A (read-out: Ki 5-HT1a, porcine cortex membranes, mean of two to five experiments in triplicate), < 0.05 µM.

For `Cc1ccc(CNCC2(F)CCN(C(=O)c3cc(Br)c(Br)o3)CC2)nc1` [Example E32, 4,5-Dibromofuran-2-yl-[4-fluoro-4-[[(5-mothylpyridin-2-ylmethyl)amino]methyl]piperidin-1-yl]-methanone], the figures for the Ki at 5-HT1A (setting [5]) and at 5-HT2 (setting [6]) were < 0.05 µM and > 5 µM, respectively.

In the case of `Cc1ccc(CNCC2(F)CCN(C(=O)c3cc(Br)c(Br)s3)CC2)nc1` [Example E8, 4,5-Dibromothien-2-yl-[4-fluoro-4-[[(5-methylpyridin-2-ylmethyl)amino]methyl]-piperidin-1-yl]-methanone], the results for the inhibition constant (Ki) on 5-HT1A (setting [5]) and at 5-HT2 (setting [6]) were < 0.05 µM and > 5 µM, respectively.

For `Cc1ccc(CNCC2(F)CCN(C(=O)c3cc[nH]n3)CC2)nc1` [Example E38], the Ki at 5-HT1A (setting [5]) was 0.501 to 5 µM; on 5-HT2, > 5 µM.
